Results on five compounds are retold here after US10906880B2, “Kind of isothiazole oxime ether-containing strobilurin derivatives and its preparation methods and application” (priority 2016, dated 2021).

Read-outs that look alike come from different tables or passages of the source.

Series [1] deals with Alternaria solani. Description: Fungicide activity, mycelial growth inhibition on PDA plate. It counts as cell-based. As to conditions: for inhibition at 50 µg/mL: Alternaria solani, read-out: Fungicidal activity inhibition, AS.
Series [2] relates to Cercospora arachidicola. Described as above. It counts as cell-based. As to conditions: for inhibition at 50 µg/mL: Mycosphaerella arachidis, read-out: Fungicidal activity inhibition, CA.
Series [3] has as its system Gibberella zeae. Description: microbe, parasite or virus in culture. It counts as cell-based. The following applies: for Fungicidal activity inhibition, GZ: 50 μg/mL, G. zeae.
The test system of series [4] is Physalospora piricola. Description: Fungicide activity, mycelial growth inhibition on PDA plate. As to conditions: for inhibition at 50 µg/mL: 50 μg/mL, P. piricola, read-out: Fungicidal activity inhibition, PP. It counts as cell-based.
In series [5] the test system is Botrytis cinerea. Described as above. It counts as cell-based. As to conditions: for inhibition at 50 µg/mL: Botrytis cinerea, read-out: Fungicidal activity inhibition, BC.
Series [6] deals with Sclerotinia sclerotiorum. The series is described as above. It counts as cell-based. As to conditions: for inhibition at 50 µg/mL: Sclerotinia sclerotiorum, read-out: Fungicidal activity inhibition, SS.
For series [7], the system named is Rhizoctonia cerealis. The series is described as above. The following applies: for inhibition at 50 µg/mL: Ceratobasidium cereale, read-out: Fungicidal activity inhibition, RC. It counts as cell-based.
Series [8] concerns Pellicularia sasakii. Described as above. It counts as cell-based. The following applies: for inhibition at 50 µg/mL: 50 μg/mL, P. sasakii, read-out: Fungicidal activity inhibition, PS.
Series [9] concerns Phytophthora infestans (Mont) de Bary. The experiment in a line: microbe, parasite or virus in culture. It counts as cell-based. As to conditions: for Fungicidal activity inhibition, PI: 50 μg/mL, P. infestans (Mont.) de Bary.
For series [10], the system named is TMV. Description: Anti-TMV activity on tobacco, curative mode. It counts as in vivo, tobacco mosaic virus. As to conditions: Tobacco mosaic virus, 100 μg/mL, tobacco; read-out: Anti-TMV activity inhibition, Curative effect.
In series [11] the test system is TMV. The experiment in a line: Anti-TMV activity on tobacco, inactivation mode. It counts as in vivo, tobacco mosaic virus. The following applies: Tobacco mosaic virus, 100 μg/mL, read-out: Anti-TMV activity inhibition, Inactivation effect.
Series [12] relates to TMV. The experiment in a line: Anti-TMV activity on tobacco, protection mode. It counts as in vivo, tobacco mosaic virus. As to conditions: Tobacco mosaic virus, 100 μg/mL, read-out: Anti-TMV activity inhibition, Protection effect.
The test system of series [13] is TMV. The experiment in a line: Anti-TMV activity on tobacco, induction mode (systemic acquired resistance). As to conditions: Tobacco mosaic virus, 100 μg/mL, read-out: Anti-TMV activity inhibition, Induction effect. It counts as in vivo, tobacco mosaic virus.

On to `CO/C=C(/C(=O)OC)c1ccccc1CO/N=C(C)/C=C/c1ccc(Cl)cc1` [Enestroburin, reference compound], for which the “Fungicidal activity inhibition, AS” value in series [1] is 50.00%. In series [2], the “Fungicidal activity inhibition, CA” value stood at 55.22%. The “Fungicidal activity inhibition, GZ” value in series [3] was determined as 21.54%. In series [4], the “Fungicidal activity inhibition, PP” value was determined as 59.09%. In addition, the “Fungicidal activity inhibition, BC” value in series [5] was found to be 48.57%. Besides, in series [6], the “Fungicidal activity inhibition, SS” value is listed as 44.00%. Besides, in [7], the “Fungicidal activity inhibition, RC” value is given as 73.97%. For the same compound, in series [8], the “Fungicidal activity inhibition, PS” value is listed as 57.50%. The “Fungicidal activity inhibition, PI” value in series [9] stood at 32.97%.

In the case of `CO/N=C(/C(=O)N[C@@H](C)CSC)c1ccccc1CO/N=C(\C)c1snc(Cl)c1Cl` [CL04-22F], the melting point was in the range of 35 to 37 °C. In addition, the inhibition at 50 µg/mL in [1] (50 μg/mL, A. solani) came to 16.4%. In [2] (50 μg/mL, C. arachidicola), the inhibition at 50 µg/mL was 12.5%. For the same compound, the inhibition at 50 µg/mL in series [3] (Fusarium graminearum, read-out: Fungicidal activity inhibition, GZ, 50 μg/mL, G. zeae) is over 30%. In addition, the inhibition at 50 µg/mL in series [4] was 32.8%. The inhibition at 50 µg/mL in series [5] (50 μg/mL, B. cinerea) is 45.5%. In series [5], the inhibition at 50 µg/mL was over 45%. In series [6] (50 μg/mL, S. sclerotiorum), the inhibition at 50 µg/mL stood at 52.9%. Moreover, the inhibition at 50 µg/mL in series [6] is over 40%. In series [7] (50 μg/mL, R. cerealis), the inhibition at 50 µg/mL was 76%. The inhibition at 50 µg/mL in series [7] is over 50%. Also, the inhibition at 50 µg/mL in series [8] worked out at 15.2%. Besides, in series [9] (Phytophthora infestans, read-out: Fungicidal activity inhibition, PI, 50 μg/mL, P. infestans (Mont.) de Bary), the inhibition at 50 µg/mL was found to be 17.1%. Also, in series [10], the inhibition at 100 µg/mL came to 1.52 ± 0.62%. The inhibition at 100 µg/mL in series [11] is 0%. Also, in series [12], the inhibition at 100 µg/mL stood at 23.8 ± 3.42%.

For the compound `C#CCNC(=O)/C(=N/OC)c1ccccc1CO/N=C(\C)c1snc(Cl)c1Cl` [CL04-22B], the melting point lay in the range of 120 to 122 °C. For the same compound, the inhibition at 50 µg/mL in series [1] (50 μg/mL, A. solani) amounted to 28.6%. Further, the inhibition at 50 µg/mL in [2] (50 μg/mL, C. arachidicola) came out at 35.7%. Also, the inhibition at 50 µg/mL in series [2] was over 30%. Further, the “Fungicidal activity inhibition, GZ” value in [3] amounted to 100%. Besides, in series [4], the inhibition at 50 µg/mL came out at 49.1%. Further, the inhibition at 50 µg/mL in series [5] (50 μg/mL, B. cinerea) worked out at 51.9%. For the same compound, the inhibition at 50 µg/mL in [5] was over 45%. Moreover, in series [6] (50 μg/mL, S. sclerotiorum), the inhibition at 50 µg/mL came to 100%. The inhibition at 50 µg/mL in [7] (50 μg/mL, R. cerealis) was 86.9%. Besides, the inhibition at 50 µg/mL in series [7] is over 50%. Besides, in [8], the inhibition at 50 µg/mL is 73.3%. Besides, the inhibition at 100 µg/mL in [10] came out at 1.52 ± 0.62%. In addition, the inhibition at 100 µg/mL in series [11] is over 30%. In addition, the inhibition at 100 µg/mL in [12] was over 40%.

On to `CNC(=O)/C(=N/OC)c1ccccc1CO/N=C(C)/C=C/c1snc(Cl)c1Cl` [CL04-32D], for which the melting point fell in the range of 137 to 139 °C. In addition, the inhibition at 50 µg/mL in series [1] (50 μg/mL, A. solani) was determined as 54.1%. In series [1], the inhibition at 50 µg/mL is over 30%. The inhibition at 50 µg/mL in series [2] (50 μg/mL, C. arachidicola) is 84%. Further, in series [3], the “Fungicidal activity inhibition, GZ” value is given as 100%. In addition, the inhibition at 50 µg/mL in series [4] was determined as 64.9%. Further, the inhibition at 50 µg/mL in series [5] (50 μg/mL, B. cinerea) came to 84.2%. Also, the inhibition at 50 µg/mL in series [5] was over 45%. The inhibition at 50 µg/mL in series [6] (50 μg/mL, S. sclerotiorum) was determined as 73.3%. The inhibition at 50 µg/mL in series [6] was over 40%. Moreover, the inhibition at 50 µg/mL in [7] (50 μg/mL, R. cerealis) is 85.4%. The inhibition at 50 µg/mL in series [7] is over 50%. In addition, the inhibition at 50 µg/mL in series [8] came to 89.2%. For the same compound, the “Fungicidal activity inhibition, PI” value in series [9] was 100%. Besides, the inhibition at 100 µg/mL in series [10] was 1.52 ± 0.62%. Also, the inhibition at 100 µg/mL in series [12] was determined as 39.1 ± 2.73%. Besides, the inhibition at 100 µg/mL in [13] was over 30%.

Turning to `CNC(=O)/C(=N/OC)c1ccccc1CO/N=C(\C)c1snc(Cl)c1Cl` [CL04-22D], the melting point was in the range of 79 to 81 °C. For the same compound, the inhibition at 50 µg/mL in series [1] (50 μg/mL, A. solani) is 47.5%. The inhibition at 50 µg/mL in [1] is over 30%. Further, the inhibition at 50 µg/mL in series [2] (50 μg/mL, C. arachidicola) was 87.5%. The “Fungicidal activity inhibition, GZ” value in [3] worked out at 100%. For the same compound, in [4], the inhibition at 50 µg/mL stood at 80.8%. Besides, the inhibition at 50 µg/mL in [5] (50 μg/mL, B. cinerea) turned out to be 100%. Further, the inhibition at 50 µg/mL in [6] (50 μg/mL, S. sclerotiorum) came out at 100%. Further, the inhibition at 50 µg/mL in series [7] (50 μg/mL, R. cerealis) came out at 100%. In addition, the inhibition at 50 µg/mL in series [8] worked out at 89.2%. The “Fungicidal activity inhibition, PI” value in series [9] came out at 100%. Besides, the inhibition at 100 µg/mL in series [10] amounted to 32.8 ± 3.36%. Moreover, the inhibition at 100 µg/mL in [11] was found to be 4.44 ± 0.85%. For the same compound, in series [12], the inhibition at 100 µg/mL was over 40%.

What is called melting point is the temperature, or range, at which the solid turns liquid.
